# Results: ChEMBL document CHEMBL1201862, “PubChem BioAssay data set” (2004)
# The source made the active and inactive calls.
# Columns and labels:
# [1] = microbe, parasite or virus in culture; assay type: functional; details: Mycobacterium tuberculosis
# Protein skinhead-1 = target: T1, Protein skinhead-1 (Caenorhabditis elegans, UniProt P34707); assay type: functional
# T1 sequence (P34707 whole entry): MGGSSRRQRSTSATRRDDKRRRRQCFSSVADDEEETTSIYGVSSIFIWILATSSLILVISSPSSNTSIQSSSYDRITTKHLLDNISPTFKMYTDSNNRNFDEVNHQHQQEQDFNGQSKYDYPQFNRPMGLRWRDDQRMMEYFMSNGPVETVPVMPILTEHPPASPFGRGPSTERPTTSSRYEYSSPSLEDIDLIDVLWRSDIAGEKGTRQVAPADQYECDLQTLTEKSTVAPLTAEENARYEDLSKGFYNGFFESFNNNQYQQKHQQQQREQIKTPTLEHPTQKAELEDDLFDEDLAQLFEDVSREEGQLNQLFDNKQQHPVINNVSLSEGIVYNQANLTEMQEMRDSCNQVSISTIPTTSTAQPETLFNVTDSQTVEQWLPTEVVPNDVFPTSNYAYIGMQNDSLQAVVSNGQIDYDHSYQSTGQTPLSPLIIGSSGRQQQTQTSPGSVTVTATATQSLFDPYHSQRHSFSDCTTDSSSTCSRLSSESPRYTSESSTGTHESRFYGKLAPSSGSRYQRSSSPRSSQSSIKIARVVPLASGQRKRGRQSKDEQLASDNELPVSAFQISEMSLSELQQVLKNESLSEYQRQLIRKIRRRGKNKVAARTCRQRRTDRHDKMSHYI
# Large T antigen = Large T antigen (Simian virus 40, UniProt P03070); assay type: functional, Betapolyomavirus macacae;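 further: Confirmatory-stage PubChem screen for compounds that inhibit SV40 T antigen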
# [2] = Luminescence Cell-Based Dose Retest to Confirm Inhibitors of Cancer Stem Cells. [Related pubchem assays (depositor defined):AID2717, AID2721]; assay type: functional; details: Homo sapiens
# [3] = target: T2, Replicative DNA helicase DnaB (Mycobacterium tuberculosis, UniProt P9WMR3); experiment: DnaB intein splicing inhibitors, dose response, biochemical, cell-free fluorescence (AID 449749); assay type: functional
# T2 sequence (P9WMR3 whole entry): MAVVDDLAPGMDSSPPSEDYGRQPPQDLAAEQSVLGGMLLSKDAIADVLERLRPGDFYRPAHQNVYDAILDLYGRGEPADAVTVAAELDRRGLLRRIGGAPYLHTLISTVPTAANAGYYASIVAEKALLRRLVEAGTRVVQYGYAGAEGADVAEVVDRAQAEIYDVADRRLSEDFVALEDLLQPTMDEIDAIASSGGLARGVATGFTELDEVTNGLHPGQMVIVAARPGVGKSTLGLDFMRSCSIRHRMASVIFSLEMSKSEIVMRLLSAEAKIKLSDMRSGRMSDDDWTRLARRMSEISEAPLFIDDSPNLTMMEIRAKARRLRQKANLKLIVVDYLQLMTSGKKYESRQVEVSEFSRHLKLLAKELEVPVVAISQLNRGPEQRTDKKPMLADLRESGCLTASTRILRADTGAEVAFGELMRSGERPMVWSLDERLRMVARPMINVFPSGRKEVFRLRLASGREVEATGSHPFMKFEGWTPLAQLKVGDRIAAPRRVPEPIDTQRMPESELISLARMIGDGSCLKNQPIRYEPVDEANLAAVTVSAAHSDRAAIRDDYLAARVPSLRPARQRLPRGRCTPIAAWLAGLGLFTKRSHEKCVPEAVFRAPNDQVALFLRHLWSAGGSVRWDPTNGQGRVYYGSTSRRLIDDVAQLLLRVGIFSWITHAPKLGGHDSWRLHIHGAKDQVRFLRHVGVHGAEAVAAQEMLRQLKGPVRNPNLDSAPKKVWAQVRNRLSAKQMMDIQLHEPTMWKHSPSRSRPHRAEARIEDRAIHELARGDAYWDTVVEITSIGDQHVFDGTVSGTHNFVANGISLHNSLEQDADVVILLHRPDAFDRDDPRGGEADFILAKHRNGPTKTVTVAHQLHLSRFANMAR
# [4] = Trypanosoma cruzi growth suppression in host cells – NIH3T3 host cells, beta-gal luminescence, confirmation (AID 2044); assay type: functional, cell-based;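 further: intracellular parasites grown in NIH/3T3 mouse fibroblasts as host cells; luminescent beta-galactosidase reporter signal from transgenic T. cruzi replicating inside host cells; inhibitors lower the luminescence signal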
# Protein RecA = target: T3, Protein RecA (Mycobacterium tuberculosis, UniProt P9WHJ3); experiment: Fluorescence Cell-Free Homogeneous Dose Retest to Identify Inhibitors of RecA-Intein Splicing Activity. [Related pubchem assays (depositor defined):AID2097, AID2223, AID489010, AID492950]; assay type: functional
# T3 sequence (P9WHJ3 whole entry): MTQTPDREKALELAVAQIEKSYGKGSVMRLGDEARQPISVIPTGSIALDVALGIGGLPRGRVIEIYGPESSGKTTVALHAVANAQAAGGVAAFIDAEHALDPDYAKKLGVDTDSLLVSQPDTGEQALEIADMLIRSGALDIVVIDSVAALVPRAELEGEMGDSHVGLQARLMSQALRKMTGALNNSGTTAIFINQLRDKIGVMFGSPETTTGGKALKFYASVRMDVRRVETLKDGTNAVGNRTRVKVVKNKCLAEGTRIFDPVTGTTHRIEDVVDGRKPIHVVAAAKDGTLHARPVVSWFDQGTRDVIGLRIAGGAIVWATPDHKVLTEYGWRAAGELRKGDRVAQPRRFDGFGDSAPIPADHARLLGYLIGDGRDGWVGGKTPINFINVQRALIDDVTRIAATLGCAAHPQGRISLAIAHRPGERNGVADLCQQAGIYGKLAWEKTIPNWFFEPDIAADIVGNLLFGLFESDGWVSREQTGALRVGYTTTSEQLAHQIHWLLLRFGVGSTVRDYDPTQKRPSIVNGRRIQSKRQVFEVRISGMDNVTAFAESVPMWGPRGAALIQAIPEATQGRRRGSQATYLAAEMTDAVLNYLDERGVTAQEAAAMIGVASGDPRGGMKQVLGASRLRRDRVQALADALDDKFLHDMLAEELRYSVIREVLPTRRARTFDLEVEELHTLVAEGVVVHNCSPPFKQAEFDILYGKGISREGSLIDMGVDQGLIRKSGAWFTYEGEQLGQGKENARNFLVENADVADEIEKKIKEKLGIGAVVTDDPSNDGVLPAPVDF
# [5] = NIH3T3 cell viability loss – ATP luminescence, mouse fibroblasts, counter-screen, dose response (AID 2010); assay type: functional, cell-based;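 further: cells exposed to compound for about 90 hours before reading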
# [6] = target: T4, Heat shock factor protein 1 (Mus musculus, UniProt P38532); experiment: enhancement of HSF1-driven luciferase signal – cell-based, NIH3T3, luminescence, dose retest, confirmation (AID 435004); assay type: functional;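 further: stress induced by proteasome inhibitor MG132 added 30 min after compound; luciferase reporter driven by HSF1 response element in NIH3T3 cells; actives raise luminescence as potentiators of the MG132 stress response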
# T4 sequence (P38532 whole entry): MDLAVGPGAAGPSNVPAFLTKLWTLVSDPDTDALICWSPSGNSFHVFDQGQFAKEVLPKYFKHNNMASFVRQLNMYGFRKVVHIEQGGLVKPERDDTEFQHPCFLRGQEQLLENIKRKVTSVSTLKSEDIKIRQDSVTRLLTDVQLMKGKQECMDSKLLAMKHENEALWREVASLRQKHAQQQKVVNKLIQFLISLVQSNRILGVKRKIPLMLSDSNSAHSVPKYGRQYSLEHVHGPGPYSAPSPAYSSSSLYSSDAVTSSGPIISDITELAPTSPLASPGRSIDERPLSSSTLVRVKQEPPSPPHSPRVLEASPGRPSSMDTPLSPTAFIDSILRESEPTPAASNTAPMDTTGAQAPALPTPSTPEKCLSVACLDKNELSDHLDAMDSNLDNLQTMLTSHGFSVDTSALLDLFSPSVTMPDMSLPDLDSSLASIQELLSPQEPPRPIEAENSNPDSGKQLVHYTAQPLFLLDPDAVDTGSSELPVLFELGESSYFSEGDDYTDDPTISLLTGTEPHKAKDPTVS
# [7] = target: Induced myeloid leukemia cell differentiation protein Mcl-1 (Homo sapiens, UniProt Q07820); assay type: functional
# H4 = experiment: Luminescence Cell-Based Dose Response HTS to Identify Activators of 5'UTR Stem-Loop Driven Prion Protein mRNA Translation in H4 Neuroglioblastoma Cells. [Related pubchem assays: 1829 (Project Summary), 1814 (Primary HTS)]; assay type: functional; details: Homo sapiens
# [8] = Luminescence Cell-Based Dose Confirmation HTS to Identify Activators of 5'UTR Stem-Loop Driven Alpha-Synuclein mRNA Translation in H4 Neuroglioblastoma Cells. [Related pubchem assays: 1829 (Project Summary), 1814 (Primary HTS)]; assay type: functional
# [9] = Luminescence Cell-Based Dose Response HTS to Identify Activators of Luciferase Translation or Activity in H4 […] Cells. [Related pubchem assays: 1829 (Project Summary), 1814 (Primary HTS)]; assay type: functional
# Genome polyprotein = Genome polyprotein (dengue virus type 2, UniProt P29990); experiment: flavivirus cap methylation enzyme inhibition – biochemical, confirmation dose response, primary screen (AID 588689); assay type: functional
# Streptokinase A = target: T5, Streptokinase A (Streptococcus pyogenes serotype M1, UniProt P10520); experiment: viability-normalized secreted streptokinase activity reduction – plasminogen activation absorbance, OD405, dose response (AID 1914); assay type: functional, Streptococcus pyogenes M1 GAS;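 further: secreted streptokinase activity via plasminogen activation per viability signal from cell pellet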
# T5 sequence (P10520 whole entry): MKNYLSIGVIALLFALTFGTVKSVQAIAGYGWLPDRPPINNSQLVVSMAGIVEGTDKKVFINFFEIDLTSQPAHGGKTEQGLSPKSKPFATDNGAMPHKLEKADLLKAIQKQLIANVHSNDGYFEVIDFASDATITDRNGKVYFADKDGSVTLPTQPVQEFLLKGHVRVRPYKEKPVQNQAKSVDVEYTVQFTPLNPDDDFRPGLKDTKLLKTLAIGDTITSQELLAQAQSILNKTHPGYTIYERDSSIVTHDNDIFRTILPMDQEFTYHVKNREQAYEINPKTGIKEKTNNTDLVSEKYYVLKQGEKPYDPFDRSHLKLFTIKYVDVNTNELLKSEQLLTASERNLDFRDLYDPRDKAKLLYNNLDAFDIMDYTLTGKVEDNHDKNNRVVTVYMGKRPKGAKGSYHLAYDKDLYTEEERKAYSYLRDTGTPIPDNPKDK
# Streptococcus = experiment: GAS UMAA2166 growth inhibition – luminescence, BacTiterGlo, counter-screen for streptokinase expression inhibitor project, dose response (AID 1915); assay type: functional, organism-based;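 further: potency for reduction of bacterial viability or growth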
# [10] = system: Streptococcus sp. 'group A'; experiment: Streptococcus pyogenes SK(-)GAS viability under kanamycin – luminescence, BacTiterGlo, confirmation, counter-screen for streptokinase expression inhibitor project, dose response (AID 1900); assay type: functional, organism-based
# Large T antigen, sequence (P03070 whole entry): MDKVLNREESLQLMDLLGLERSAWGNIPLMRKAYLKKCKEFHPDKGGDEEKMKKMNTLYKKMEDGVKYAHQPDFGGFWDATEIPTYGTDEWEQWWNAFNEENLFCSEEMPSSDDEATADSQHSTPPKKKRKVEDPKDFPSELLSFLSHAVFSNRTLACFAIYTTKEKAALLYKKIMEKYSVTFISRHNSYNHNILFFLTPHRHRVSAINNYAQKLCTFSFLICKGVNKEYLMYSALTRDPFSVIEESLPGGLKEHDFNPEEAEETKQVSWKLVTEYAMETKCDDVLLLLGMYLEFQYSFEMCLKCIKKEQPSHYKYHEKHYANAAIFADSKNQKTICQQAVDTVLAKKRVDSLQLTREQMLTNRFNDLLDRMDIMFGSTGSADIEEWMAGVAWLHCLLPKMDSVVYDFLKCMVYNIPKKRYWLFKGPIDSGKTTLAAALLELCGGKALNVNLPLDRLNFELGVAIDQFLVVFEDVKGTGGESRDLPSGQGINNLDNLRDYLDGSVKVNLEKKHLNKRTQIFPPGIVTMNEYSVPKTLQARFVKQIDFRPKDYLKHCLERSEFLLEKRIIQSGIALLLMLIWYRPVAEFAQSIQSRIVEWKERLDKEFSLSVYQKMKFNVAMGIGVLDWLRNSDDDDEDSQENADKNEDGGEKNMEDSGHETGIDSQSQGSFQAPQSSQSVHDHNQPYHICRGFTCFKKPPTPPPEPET
# Genome polyprotein, sequence (P29990 2492-3391 limits assumed): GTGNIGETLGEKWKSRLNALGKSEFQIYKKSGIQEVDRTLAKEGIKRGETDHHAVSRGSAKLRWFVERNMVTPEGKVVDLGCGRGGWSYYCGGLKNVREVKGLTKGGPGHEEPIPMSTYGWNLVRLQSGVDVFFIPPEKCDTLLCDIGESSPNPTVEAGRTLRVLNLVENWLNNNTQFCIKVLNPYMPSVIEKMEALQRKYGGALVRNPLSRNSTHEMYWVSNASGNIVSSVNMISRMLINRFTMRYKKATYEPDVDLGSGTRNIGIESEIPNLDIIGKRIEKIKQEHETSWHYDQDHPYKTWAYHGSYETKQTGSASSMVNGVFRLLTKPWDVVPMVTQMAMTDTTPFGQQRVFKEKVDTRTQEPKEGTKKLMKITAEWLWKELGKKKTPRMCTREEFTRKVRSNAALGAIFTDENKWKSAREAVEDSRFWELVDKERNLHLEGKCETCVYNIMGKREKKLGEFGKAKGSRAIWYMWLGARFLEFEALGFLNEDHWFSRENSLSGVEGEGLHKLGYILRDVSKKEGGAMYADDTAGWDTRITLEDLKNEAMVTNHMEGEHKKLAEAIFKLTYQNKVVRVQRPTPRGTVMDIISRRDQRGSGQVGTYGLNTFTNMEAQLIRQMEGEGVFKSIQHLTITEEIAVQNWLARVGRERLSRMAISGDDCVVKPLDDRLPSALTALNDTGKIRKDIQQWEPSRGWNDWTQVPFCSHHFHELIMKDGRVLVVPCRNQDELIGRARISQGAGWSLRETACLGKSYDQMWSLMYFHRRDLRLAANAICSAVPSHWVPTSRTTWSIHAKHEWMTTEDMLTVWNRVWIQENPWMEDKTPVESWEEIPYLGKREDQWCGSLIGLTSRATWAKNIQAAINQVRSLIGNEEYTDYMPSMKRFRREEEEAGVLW
# Induced myeloid leukemia cell differentiation protein Mcl-1, sequence (Q07820 whole entry): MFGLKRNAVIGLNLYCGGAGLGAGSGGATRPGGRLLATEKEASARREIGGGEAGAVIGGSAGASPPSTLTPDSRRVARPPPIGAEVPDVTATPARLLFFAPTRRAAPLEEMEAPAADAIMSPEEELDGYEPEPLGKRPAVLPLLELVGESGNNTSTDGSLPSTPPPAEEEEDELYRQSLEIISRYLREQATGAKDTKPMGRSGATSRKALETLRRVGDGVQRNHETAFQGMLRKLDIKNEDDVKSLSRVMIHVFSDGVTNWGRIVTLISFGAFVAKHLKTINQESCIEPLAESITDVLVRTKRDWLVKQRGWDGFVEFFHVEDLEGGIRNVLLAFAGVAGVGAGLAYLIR
compound,measurement,setting,value
O=C(c1ccccc1)c1ccc(OCCOCCN2CCN(Cc3ccccc3)CC2)cc1,CC50,[1],> 40 µM (active)
COc1ccc(CN2CCN(Cc3ccco3)CC2)cc1,IC50,Protein skinhead-1,> 100 µM (inactive)
CCOc1cc(/C=C/c2cc(C(F)(F)F)nc(O)n2)ccc1O,IC50,Large T antigen,13 µM (active)
Cc1cc(C)n2nc(/C(C#N)=C/c3ccccn3)c(C#N)c2n1,CC50,[1],> 40 µM (active)
CCOc1ccc(OCCC(=O)OCC(=O)N2CCN(S(=O)(=O)c3ccc(C)cc3)CC2)cc1,IC50,Large T antigen,11.1 µM (active)
O=C(CCOc1ccccc1)N1CCN(c2ccc(O)cc2)CC1,AC50,[2],11.3 µM (active)
same,IC50,Large T antigen,4.19 µM (active)
O=c1c(-c2cnn(-c3ccccc3)c2)coc2cc(O)ccc12,CC50,[1],> 40 µM (active)
C=C[S+]([O-])c1sc(Cl)c(N2CCOCC2)c1[N+](=O)[O-] (stereo not drawn),AC50,[3],22.2 µM (active)
same,EC50,[4],2.99 µM (active)
same,EC50,Protein RecA,18.8 µM (active)
same,EC50,[5],3.08 µM (active)
same,EC50,[6],3.36 µM (inconclusive)
same,IC50,Large T antigen,9.77 µM (active)
CC(C)(C)c1ccc(-c2nc3nc(O)cc(NC(=O)c4ccco4)n3n2)cc1,CC50,[1],> 40 µM (active)
OC(CN1CCN(c2ccccn2)CC1)Cn1c2ccccc2c2ccccc21 (stereo not drawn),CC50,[1],> 40 µM (active)
Cc1ccc2nc3c(cc(C(=O)NCc4ccco4)c(=N)n3Cc3ccco3)c(=O)n2c1,CC50,[1],23.8 µM (active)
CCN(CC)c1ccc(NC(=O)CCNC(=O)c2ccco2)cc1,IC50,[7],9.57 µM (not active)
same,IC50,Large T antigen,6.69 µM (active)
COc1ccc(OS(=O)(=O)Cc2ccccc2)cc1,EC50,H4,57.5 µM (active)
same,EC50,[8],> 120 µM (not active)
same,EC50,[9],10.8 µM (active)
CCN1CCN(c2ncnc3c2c(-c2ccccc2)cn3-c2ccc(F)cc2)CC1,IC50,Protein skinhead-1,12.6 µM (active)
O=C(O)/C=C/C(=O)c1ccc2c(c1)NC(=O)CO2,IC50,Genome polyprotein,> 100 µM (active)
Cc1cc(N2CCOCC2)nc2cc(O)ccc12,EC50,H4,> 120 µM (not active)
same,EC50,[8],16.2 µM (active)
same,EC50,[9],6.94 µM (active)
O=C(CN1C(=O)NC2(CCCC2)C1=O)Nc1cc(S(=O)(=O)N2CCOCC2)ccc1OCC(F)(F)F,IC50,Protein skinhead-1,> 100 µM (inactive)
Nc1nc2c(C(=O)N3CCOCC3)nnn2c2ccccc12,EC50,H4,26.9 µM (active)
same,EC50,[8],0.138 µM (active)
same,EC50,[9],0.203 µM (active)
Cc1cnc(C(=O)N(CCCn2ccnc2)C2C(=O)Nc3ccccc3N=C2c2ccccc2)cn1 (stereo not drawn),IC50,Protein skinhead-1,> 100 µM (inactive)
Fc1ccc(-c2nc(-c3cccs3)no2)cc1,IC50,Protein skinhead-1,> 100 µM (inactive)
COc1cc(CCC(=O)OCC(=O)Nc2ccc(F)cc2F)cc(OC)c1OC,IC50,Protein skinhead-1,> 100 µM (inactive)
Cc1ccccc1-c1nc(C[S+]([O-])CC(=O)NCc2ccc3c(c2)OCO3)c(C)o1 (stereo not drawn),IC50,Protein skinhead-1,> 100 µM (inactive)
Cc1cc(-n2c(C)cc(C(=O)COc3ccccc3[N+](=O)[O-])c2C)no1,EC50,H4,> 120 µM (not active)
same,EC50,[8],13.5 µM (active)
same,EC50,[9],44.9 µM (active)
COc1cc(/C=N/N=C2/C(=O)Nc3ccccc32)ccc1O,IC50,Large T antigen,8.73 µM (active)
c1csc(-c2cn3ccc4ccccc4c3n2)c1,EC50,H4,0.106 µM (active)
same,IC50,Protein skinhead-1,33.6 µM (active)
same,EC50,[9],26 µM (active)
Cc1nn(-c2ccccc2)c(Cl)c1/C=C1\SC(=S)N(CCCCCC(=O)O)C1=O,AC50,[3],4.93 µM (active)
same,EC50,Protein RecA,14.2 µM (active)
same,EC50,Streptokinase A,40.7 µM (inconclusive)
same,EC50,Streptococcus,11.2 µM (active)
same,EC50,[10],5.26 µM (active)
same,IC50,Genome polyprotein,41.4 µM (active)
